Reference: BigSolDB 2.1

O=C(Nc1ccc([N+](=O)[O-])cc1Cl)c1cc(Cl)ccc1O
solubility (mole fraction)
Details	in DMSO	in ethanol	in isopropanol	in methanol	in n-butanol	in water
298.15 K	0.000152	0.000166	0.000242	7.78e-05	0.000305	3.27e-07
303.15 K	0.000161	0.000183	0.000274	7.69e-05	0.000309	4.12e-07
308.15 K	0.000165	0.000186	0.000279	6.9e-05	0.000345	4.19e-07
313.15 K	0.000167	0.000186	0.000304	6.75e-05	0.000347	4.27e-07
318.15 K	0.00017	0.000199	0.000345	5.9e-05	0.000402	4.74e-07
323.15 K	0.000205	0.0002	0.000348	5.35e-05	0.000591	6.04e-07

Details	solubility (mole fraction)
in PEG-200, 298.15 K	0.000527
in PEG-200, 303.15 K	0.000556
in PEG-200, 308.15 K	0.000604
in PEG-200, 313.15 K	0.000666
in PEG-200, 318.15 K	0.000686
in PEG-200, 323.15 K	0.00079
in PEG-400, 298.15 K	0.0011
in PEG-400, 303.15 K	0.00129
in PEG-400, 308.15 K	0.00138
in PEG-400, 313.15 K	0.00159
in PEG-400, 318.15 K	0.00168
in PEG-400, 323.15 K	0.00193
